Measurements as given in paper PMC6314593, “Characterization of novel lignocellulose-degrading enzymes from the porcupine microbiome using synthetic metagenomics” (PLoS ONE, 2019).

Tested on: T1, endo-1,4-β-xylanase
T1 construct: gene GH10 xylanase; codon-optimised synthetic gene in pET26b(+); N-terminal PelB leader, C-terminal 6xHis, tags kept; ~81 kDa; E. coli BL21(DE3)
Experiment: fluorescence of released CMU (ex […] nm, em […] nm), Lineweaver-Burk
Format: biochemical, uncultured bacterium
Conditions: pH 7, 37°C, 50 mM sodium phosphate

SMILES: Cc1cc(=O)oc2cc(O[C@@H]3OC[C@@H](O[C@@H]4OC[C@@H](O)[C@H](O)[C@H]4O)[C@H](O)[C@H]3O)c(Cl)cc12 [CMU-X2, 6-chloro-4-methylumbelliferyl xylobioside]
- Km: 32 ± 4.72 µM
